# Measurements taken from patent US20240360145A1, “PYRIMIDINE-2,4-DIAMINE DERIVATIVES AS WELL AS PREPARATION METHOD THEREFOR AND USE THEREOF” (LISEN THERAPEUTICS, INC., priority 2022, published 2024).
# Experiments:
# Assay type in all cases: cell-based
# [1] = system: Hela (cervical cancer); assay: Cell viability IC50 (CellTiter-Glo), Hela; conditions: Homo sapiens, 72 hours
# Protocol: (§1) The cancer cell lines were cultured to the logarithmic growth phase according to conventional culture methods, and the cells were inoculated into a 384-well plate at a density of 2,000 cells/well in a volume of 40 μl/well. The concentrations of added compounds were: […], 1.67 μM, 0.56 μM, 0.19 μM, 0.062 μM, 0.021 μM, 0.0069 μM, 0.0023 μM, 0.00076 μM, and 0 μM. After 72 hours, cell viability was detected using the CellTiter-Glo™ Detection Kit.
# [2] = system: MiaPaca-2 (pancreatic cancer); assay: Cell viability IC50 (CellTiter-Glo), MiaPaca-2; conditions: Homo sapiens, MIA PaCa-2, MiaPaca-2, 72 hours
# Protocol: as §1
# [3] = system: PE062 primary cells; assay: Cell viability IC50 (CCK-8), primary cells PE062 from small cell lung cancer pleural effusion; conditions: PE062, CCK-8
# Protocol: (1) The pleural effusion was poured into a 15 mL or 50 mL of sterilized centrifuge tube for centrifugation. Centrifugation conditions: 800 to 1000 rpm, 5 min.
# (2) The precipitate was resuspended and washed for 2 to 3 times with PBS.
# (3) The cell precipitate was resuspended with complete culture medium (α-MEM medium containing 10% fetal bovine serum and 2% penicillin-streptomycin), and the flocculent matter in the pleural effusion was removed using a sterilized cell sieve.
# (4) The red blood cells in the pleural effusion were removed with lymphocyte separation fluid, and the tumor cells and lymphocyte components were collected. The number of tumor cells was observed under a microscope, and the cells were inoculated.
# (5) After 24 hours, the supernatant was discarded, and fresh culture medium was added for further culture.
# (6) The cell growth status was observed, and it was determined based on the cell status whether the medium was required to be continuously changed to remove blood cells. When the cells grew to a density of 80% to 90%, the cells were preserved.
# (1) Primary cells from lung cancer pleural effusion within 5 generations were cultured to the logarithmic growth phase. […] After centrifugation at room temperature, the supernatant was discarded, and the cell precipitate was resuspended with fresh complete culture medium. After counting, the cells were placed at room temperature for later use. The cells were inoculated into a 384-well plate at a density of 2000 cells/well with a volume of 40 μl/well. The wells at the outermost circle of the plate were not inoculated with cells, and instead, added with sterile water to reduce evaporation of the culture medium.
# (2) After overnight culture of the cells, the medium was discarded, and a fresh medium containing different concentrations of compounds was added at 200 μl/well. The dilution method of the compound was as follows: first the compound with the highest concentration of 10 μM was prepared, and then the compound was diluted for 3 times in sequence. […] At the same time, a blank control group was set up, in which only an equal volume of culture medium was added without adding cells. Five replicate wells were set up for each group. The cells were placed in the incubator for further culture.
# (3) After 72 hours, 8 μl of CCK-8 solution, which was double-diluted with 10 mM PBS, was added to each well, and the cells were shaken and placed in an incubator at 37° C. for further culture for 2 hours.
# (4) The light absorbance value at 450 nm was read using a microplate reader, and the IC50 was calculated according to the absorbance value. The calculation method was the same as above.
# (1) Sample information: PE039, PE052, and PE062 were all primary cell samples from pleural effusion of patients with small cell lung cancer, and LT015 was a primary cell sample from bronchoscopic biopsy of a patient with small cell lung cancer.
# (2) CCK-8 detection was used to detect the IC50 values of different medicaments (compounds).
smiles,measurement,setting,value
"CN1CC2CCC(C1)N2Cc1ccc(Nc2ncc(Cl)c(Nc3ccccc3S(=O)(=O)N(C)C)n2)cc1 [Compound 8, 2-((5-chloro-2-((4-((3-methyl-3,8-diazabicyclo[3.2.1]octan-8-yl)methyl)phenyl)amino)pyrimidin-4-yl)amino)-N,N-dimethylbenzenesulfonamide]",IC50,[1],123 nM
same,IC50,[2],13.2 nM
same,IC50,[3],2.7 nM
